In patent publication US20210332036A1, “PYRIMIDINE AND PYRAZINE HDAC1,2 INHIBITORS” (REGENACY PHARMACEUTICALS, LLC, priority 2018, published 2021):

What was measured:
[1] = target: T1, HDAC2 (Homo sapiens, UniProt Q92769); test: HDAC enzyme assay, HDAC2; format: biochemical; conditions: 10 μM substrate, 10 min preincubation
T1 construct: purchased BPS Biosciences
Experimental: (§1) Compounds for testing were diluted in DMSO to 50 fold the final concentration and a ten-point three-fold dilution series was made. The compounds were diluted in assay buffer (50 mM HEPES, pH 7.4, 100 mM KCl, 0.001% Tween-20, 0.05% BSA, 20 μM TCEP) to 6-fold their final concentration. The HDAC enzymes (purchased from BPS Biosciences) were diluted to 1.5-fold their final concentration in assay buffer. The tripeptide substrate and trypsin at 0.05 μM final concentration were diluted in assay buffer at 6-fold their final concentration. The final enzyme concentrations used in these assays were 3.3 ng/ml (HDAC1), 0.2 ng/ml (HDAC2) and 0.08 ng/ml (HDAC3). The final substrate concentrations used were 16 μM (HDAC1), 10 μM (HDAC2) and 17 μM (HDAC3).
(§2) Five μl of compounds and 20 μl of enzyme were added to wells of a black, opaque 384 well plate in duplicate. Enzyme and compound were incubated together at room temperature for 10 minutes. Five μl of substrate was added to each well, the plate was shaken for 60 seconds and placed into a Victor 2 microtiter plate reader. The development of fluorescence was monitored for 60 min and the linear rate of the reaction was calculated. The IC50 was determined using Graph Pad Prism by a four parameter curve fit.

[2] = PK parameters, IV dosing (plasma and brain exposure); format: in vivo; set-up: AUC(0-t): concentration or dose not given beside the values; conditions: Mouse IV; for Kp: brain/plasma, read-out: Brain AUC/Plasma AUC
Experimental: [The procedure below names another organism; the source lists this organism under the same test.] Male SD rats were fasted overnight. Compounds of the invention were dissolved in dimethyl acetamide at 10 times the final concentration, then Solutol HS 15 (BASF) was added to a final concentration of 10%. Finally 80% saline was added and vortexed to achieve a clear solution. For the IV dosing three animals were injected via the foot dorsal vein with 1 mg/kg compound. For the PO dosing 5 mg/kg of compound was delivered by oral gavage. Blood was collected via the tail vein into K2EDTA tubes at 5 minutes, 15 minutes, 30 minutes, 1 hour, 2 hours, 4 hours, 8 hours and 24 hours after dosing. The blood was centrifuged at 2000 g for 5 minutes at 4° C. to obtain plasma. The plasma was extracted with acetonitrile and the level of compound was analyzed by LC/MS/MS. The level of compound in plasma was calculated from a standard curve in rat plasma. The IV clearance (L/h/kg) and area under the curve (h*ng/mL) were calculated using WinNonLin software. The dose adjusted area under the curve for the IV and oral dosing were used to calculate the oral bioavailability.
Pharmacokinetic properties were assessed in a rat cassette dosing experiment. The IV clearance (IV Clr.) is in units of L/hr/kg. The oral maximum plasma concentration (PO Cmax) is in units of ng/ml. The oral plasma half-life (PO T1/2) is in units of hours. The oral area under the curve (PO AUC) is in units of hours*ng/ml. The fraction absorbed by the oral route (F %) is a percentage of the oral area under the curve to the IV area under the curve, dose adjusted.

[3] = PK parameters, IP dosing (plasma and brain exposure); format: in vivo; set-up: AUC(0-t): concentration or dose not given beside the values; conditions: Mouse IP; for Kp: brain/plasma, read-out: Brain AUC/Plasma AUC
[4] = target: T2, HDAC1 (Homo sapiens, UniProt Q13547); test: HDAC enzyme assay, HDAC1; format: biochemical; conditions: 16 μM substrate, 10 min preincubation
T2 construct: purchased BPS Biosciences
T2 sequence (Q13547 whole entry): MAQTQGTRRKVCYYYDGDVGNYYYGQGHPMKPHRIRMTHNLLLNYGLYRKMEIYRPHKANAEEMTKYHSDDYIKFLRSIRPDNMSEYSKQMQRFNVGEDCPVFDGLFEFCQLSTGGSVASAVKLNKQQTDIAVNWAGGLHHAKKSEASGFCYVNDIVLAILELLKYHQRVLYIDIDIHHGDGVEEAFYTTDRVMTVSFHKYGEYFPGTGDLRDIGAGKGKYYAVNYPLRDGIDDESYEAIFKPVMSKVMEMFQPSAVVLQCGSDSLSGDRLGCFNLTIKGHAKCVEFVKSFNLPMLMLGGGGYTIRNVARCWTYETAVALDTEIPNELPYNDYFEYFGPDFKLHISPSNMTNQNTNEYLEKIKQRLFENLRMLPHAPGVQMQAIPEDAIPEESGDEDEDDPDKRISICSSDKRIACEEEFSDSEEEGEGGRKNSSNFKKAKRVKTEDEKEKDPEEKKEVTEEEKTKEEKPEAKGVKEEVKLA
Experimental: as §1, §2

[5] = target: T3, HDAC3 (Homo sapiens, UniProt O15379); test: HDAC enzyme assay, HDAC3; format: biochemical; conditions: 17 μM substrate, 10 min preincubation
T3 construct: purchased BPS Biosciences
T3 sequence (O15379 whole entry): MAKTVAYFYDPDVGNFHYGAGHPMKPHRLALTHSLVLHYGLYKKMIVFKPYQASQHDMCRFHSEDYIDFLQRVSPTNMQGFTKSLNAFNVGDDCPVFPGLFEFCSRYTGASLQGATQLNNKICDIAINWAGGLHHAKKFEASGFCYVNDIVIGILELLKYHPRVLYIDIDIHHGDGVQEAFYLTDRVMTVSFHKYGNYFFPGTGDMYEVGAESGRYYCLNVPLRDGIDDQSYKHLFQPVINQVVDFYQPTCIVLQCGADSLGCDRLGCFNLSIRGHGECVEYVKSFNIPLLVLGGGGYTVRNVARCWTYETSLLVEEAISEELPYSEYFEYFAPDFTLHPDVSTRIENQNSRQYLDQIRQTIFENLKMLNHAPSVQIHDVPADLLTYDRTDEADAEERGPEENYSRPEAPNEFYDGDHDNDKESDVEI
T3 sequence (Q9Y618 395-489 partner limits assumed): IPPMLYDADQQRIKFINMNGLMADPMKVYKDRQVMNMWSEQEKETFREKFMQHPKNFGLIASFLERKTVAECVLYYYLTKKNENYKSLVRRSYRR
Experimental: as §1, §2

[6] = brain, read-out: AUC(last) Brain
[7] = plasma, read-out: AUC(last) Plasma

T1 sequence (Q92769 whole entry): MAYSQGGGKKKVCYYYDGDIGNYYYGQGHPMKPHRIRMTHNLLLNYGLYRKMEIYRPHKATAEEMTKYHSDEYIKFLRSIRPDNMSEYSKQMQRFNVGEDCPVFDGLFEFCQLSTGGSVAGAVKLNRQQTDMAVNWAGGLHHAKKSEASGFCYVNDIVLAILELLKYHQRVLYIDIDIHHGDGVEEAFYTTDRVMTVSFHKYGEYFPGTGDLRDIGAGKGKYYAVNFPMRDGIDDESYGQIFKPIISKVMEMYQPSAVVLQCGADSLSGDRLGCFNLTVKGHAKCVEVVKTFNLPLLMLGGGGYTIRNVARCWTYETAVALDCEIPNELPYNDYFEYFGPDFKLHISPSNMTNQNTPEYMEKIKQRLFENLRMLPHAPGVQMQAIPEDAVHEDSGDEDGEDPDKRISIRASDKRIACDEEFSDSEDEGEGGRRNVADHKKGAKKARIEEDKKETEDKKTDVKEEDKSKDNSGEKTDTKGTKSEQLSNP

| SMILES | IC50 [1] [nM] | AUC(0-t) [2, 6] [ng·h/mL] | AUC(0-t) [2, 7] [ng·h/mL] | Kp [2] | AUC(0-t) [3, 6] [ng·h/mL] | AUC(0-t) [3, 7] [ng·h/mL] | Kp [3] | IC50 [4] [nM] | IC50 [5] [nM] |
| --- | --- | --- | --- | --- | --- | --- | --- | --- | --- |
| CC(=O)N1CCN(c2ccc(C(=O)Nc3cc(-c4cccs4)ccc3N)nc2)CC1 [Compound 010] | 10 to 20 | 200 to 300 | 500 to 600 | 0.1 to 1.5 | 200 to 300 | 2000 to 2100 | 0.1 to 1.5 | 1 to 10 | 120 to 130 |
| Nc1ccc(-c2ccccc2)cc1NC(=O)c1ncc(N2CCNCC2)cn1 [Compound 009] | 70 to 80 | 300 to 400 | 300 to 400 | 0.8 to 1.5 | 200 to 300 | 1700 to 1800 | 0.1 to 1.5 | 10 to 20 | 200 to 210 |
| COCCOc1ccc(C(=O)Nc2cc(-c3cccs3)ccc2N)nc1 [Compound 004] | 50 to 60 | 500 to 600 | 700 to 800 | 0.1 to 1.5 | 2100 to 2200 | 2300 to 2400 | 0.1 to 1.5 | 1 to 10 | 440 to 450 |
| CNS(=O)(=O)Oc1ccc(-c2ccc(N)c(NC(=O)c3ccc(N4CCN(C)CC4)cn3)c2)cc1 [Compound 011] | 10 to 20 | 100 to 200 | 200 to 300 | 0.1 to 1.5 | < 100 | 900 to 1000 | 0.1 to 1.5 | 1 to 10 | > 2000 |
| Cc1ccc(-c2ccc(N)c(NC(=O)c3ccc(N4CCNCC4)cn3)c2)cc1 [Compound 001] | 30 to 40 | 19000 to 20000 | 1400 to 1500 | 10 to 15 | 64700 to 64800 | 6700 to 6800 | 1 to 5 | 10 to 20 | 480 to 490 |
| Nc1ccc(-c2cccs2)cc1NC(=O)c1ccc(OCCO)cn1 [Compound 005] | 10 to 20 | 600 to 700 | 600 to 700 | 0.8 to 1.2 | 2000 to 2100 | 2300 to 2400 | 0.1 to 1.5 | 1 to 10 | 110 to 120 |
| COCCOc1ccc(C(=O)Nc2cc(-c3cccs3)ccc2N)nn1 [Compound 008] | 20 to 30 | 200 to 300 | 600 to 700 | 0.1 to 1.5 | 1300 to 1400 | 2900 to 3000 | 0.1 to 1.5 | 1 to 10 | 260 to 270 |
| Nc1ccc(-c2cccs2)cc1NC(=O)c1ncc(N2CCNCC2)cn1 [Compound 007] | 90 to 100 | 30 to 40 | 400 to 500 | 0.01 to 0.1 | 900 to 1000 | 1800 to 1900 | 0.1 to 1.5 | 10 to 20 | 170 to 180 |
| Nc1cc(F)c(-c2cccs2)cc1NC(=O)c1ccc(N2CCNCC2)cn1 [Compound 002] | 10 to 20 | 9000 to 10000 | 400 to 500 | 20 to 25 | 23100 to 23200 | 2400 to 2500 | 5 to 10 | 1 to 10 | 200 to 210 |
| CN1CCN(c2cnc(C(=O)Nc3cc(-c4cccs4)ccc3N)nc2)CC1 [Compound 006] | 40 to 50 | 700 to 800 | 200 to 300 | 2 to 4 | 700 to 800 | 800 to 900 | 0.1 to 1.5 | 1 to 10 | 80 to 90 |
| Nc1ccc(-c2ccccc2)cc1NC(=O)c1ccc(N2CCNCC2)nn1 [Compound 003] | 20 to 30 | 3000 to 4000 | 1000 to 1100 | 1 to 5 | 7900 to 8000 | 4700 to 4800 | 1 to 5 | 1 to 10 | 170 to 180 |

Further lines, results first:

| IC50 [1] [nM] | AUC(0-t) [2, 6] [ng·h/mL] | AUC(0-t) [2, 7] [ng·h/mL] | Kp [2] | AUC(0-t) [3, 6] [ng·h/mL] | AUC(0-t) [3, 7] [ng·h/mL] | Kp [3] | IC50 [4] [nM] | IC50 [5] [nM] | SMILES |
| --- | --- | --- | --- | --- | --- | --- | --- | --- | --- |
| 30 to 40 | < 100 | 300 to 400 | 0.01 to 0.1 | < 100 | 900 to 1000 | 0.001 to 0.01 | 1 to 10 | 230 to 240 | Nc1ccc(-c2ccccc2)cc1NC(=O)c1ncc(NCCOCc2cccnc2)cn1 [Compound 016] |
| 30 to 40 | 100 to 200 | 500 to 600 | 0.1 to 1.5 | < 100 | 3200 to 3300 | 0.01 to 0.1 | 10 to 20 | 110 to 120 | Nc1ccc(-c2ccoc2)cc1NC(=O)c1ncc(N2CCNCC2)cn1 [Compound 015] |
| 10 to 20 | 100 to 200 | 1500 to 1600 | 0.05 to 0.1 | 200 to 300 | 7400 to 7500 | 0.01 to 0.1 | 1 to 10 | 50 to 60 | Nc1ccc(-c2cccs2)cc1NC(=O)c1ccc(NC2CCN(C(=O)N3CCNCC3)CC2)cn1 [Compound 014] |
| 20 to 30 | 200 to 300 | 1100 to 1200 | 0.1 to 0.3 | 300 to 400 | 5900 to 6000 | 0.01 to 0.1 | 1 to 10 | 140 to 150 | Nc1ccc(-c2cccs2)cc1NC(=O)c1ccc(OC[C@H](O)CO)cn1 [Compound 013] |
| 10 to 20 | 400 to 500 | 800 to 900 | 0.1 to 1.5 | 300 to 400 | 4300 to 4400 | 0.01 to 0.1 | 1 to 10 | 20 to 30 | Nc1ccc(-c2cncs2)cc1NC(=O)c1ccc(N2CCNCC2)cn1 [Compound 012] |
| 5 to 15 | 9000 to 10000 | 600 to 700 |  | 25000 to 25300 | 2700 to 2800 |  | 1 to 10 | 30 to 40 | Nc1ccc(-c2cccs2)cc1NC(=O)c1cnc(N2CCNCC2)cn1 [Compound 017] |
